Data as given in patent US11639337B2, “Bicyclic heteroaryl derivatives and preparation and uses thereof” (XWPHARMA LTD., priority 2017, dated 2023).

How the values were obtained:
[1] = biological target: T1, human Nav1.2 voltage-gated sodium channels (Homo sapiens, UniProt Q99250); experiment: Manual whole-cell patch-clamp, inhibition of hNav1.2 sodium current; format: cell-based; details: HEK293 cells stably transfected with SCN2A, holding potential -80 mV, peak current
T1 construct: expressed in transfected cells; host or cells: HEK293
Experimental: (§1) The potential inhibitory effect of Compound I-XXII on human voltage-gated sodium channels (hNav1.2/1.7) was evaluated by manual patch-clamp system according to the procedures as described. HEK293 cell line stably transfected with SCN2A/SCN9A gene was employed in this study and Tetrodotoxin (TTX) was used as a positive control to ensure the good quality of the assay.
(§2) General procedure: HEK 293 cells were stably transfected with human Nav1.2 or Nav1.7 voltage-gated sodium channels. The cells are routinely maintained in culture medium containing in 90% DMEM, 10% FBS, 100 U/mL Penicillin-Streptomycin and […] of G418. Before the assay, the cells were resuspended and plated onto the coverslips at 5×10^5 cells/per 6 cm cell culture dish for use. The voltage-gated Nav1.2 and Nav1.7 channel current was recorded at room temperature (25° C.) from randomly selected transfected cells under whole-cell patch clamp systems equipped with EPC10 USB (HEKA) or Multiclamp 700B amplifier (Molecular Devices), while electrical data was digitalized by Digidata1440A with sampling frequency over 10 kHz and acquired with Patchmaster or pClamp10 respectively. The glass electrode with resistance ranged from 2 to 3.5 MW was prepared by micropipette puller P-97 (Sutter Instrument) and filled with internal solutions (in mM): 140 KCl, 2 MgCl2, 10 EGTA, 10 HEPES and 5 MgATP (pH adjusted to 7.35 with KOH), while cells were bathed in extracellular solutions (in mM) 132 NaCl, 4 KCl, 3 CaCl2, 0.5 MgCl2, 11.1 glucose, and 10 HEPES (pH adjusted to 7.35 with NaOH). After rupture, the series membrane resistance was at least 50% compensated and capacitance was also compensated as well. All cells were voltage-clamped to a holding potential of −80 mV unless otherwise specified. The inward sodium currents were elicited by a 20-ms voltage pulse to 10 mV from −80 mV applied every 15 s. The sodium current was initially recorded for at least 120 seconds to assess the current stability, and only cells with recording parameters over acceptance criteria was finally used to assess the dose response to the local perfusion of Compound I-XXII. The blank vehicle was firstly applied to the patched cells in order to establish the recording baseline. After at least 5 min when the elicited sodium currents reaches stabilization, the test compound was perfused into recording chamber accumulatively from low to high concentrations. The positive control article, Tetrodotoxin (TTX), was also used to challenge same batch of cell in order to ensure the good performance of the recording system. All experiments were performed in triplicate for IC50 determination. Upon data acquisition, the PatchMaster or pClamfit software were used to extract the peak current from the original raw data, while the peak current inhibition was defined by equation as shown below.
(§3) The dose response curve for the test compound was plotted with % inhibition against the dose concentration of the test compound using Graphpad Prism 5.0 software, and then the data was fit to a sigmoid dose-response curve with variable slope for IC50 determination.

[2] = biological target: T2, human Nav1.7 voltage-gated sodium channels (Homo sapiens, UniProt Q15858); experiment: Manual whole-cell patch-clamp, inhibition of hNav1.7 sodium current; format: cell-based; details: HEK293 cells stably transfected with SCN9A, holding potential -80 mV, peak current
T2 construct: expressed in transfected cells; host or cells: HEK293
Experimental: as §1, §2, §3

[3] = system: SNL (Spinal Nerve Ligation) rats; experiment: Mechanical allodynia in SNL (spinal nerve ligation) rats, von Frey; format: in vivo, Sprague-Dawley rats; details: 5 mg/kg i.p., 0.5 h time point post dose
Experimental: SNL model is a commonly used model to measure surgical induced neuropathic pain. The goal of the study was to evaluate the efficacy of Compound I to attenuate mechanical allodynia in SNL model in Sprague-Dawley rats.
In this study, SNL model was created following typical procedure and the approved drug Tapentadol (XW-TAP) was used as reference compound. Gabapentin was applied as positive control for model validation.
1) 5 mg/kg Compound I: Added 17.13 mg Compound I to 16.96 mL 0.5% methylcellulose in normal saline solution, vortexed to fully mix.
1) Rats were placed individually in a plastic enclosure with a mesh bottom which allowed full access to the paws. Rats were acclimated for 15 min prior to testing.
2) After acclimation, the mid-plantar hind paw was touched with one of a series of eight von Frey hairs with logarithmically incremental stiffness as follows: 3.61 (0.4 g), 3.84 (0.6 g), 4.08 (1 g), 4.31 (2 g), 4.56 (4 g), 4.74 (6 g), 4.93 (8 g) and 5.18 (15 g). The von Frey hairs were presented perpendicularly to the plantar surface with sufficient force to cause slight buckling against the paw and held for approximately 6-8 s. Stimulation was presented at intervals of 5 seconds, allowing for apparent resolution of any behavioral responses to previous stimulus. A positive response was noted if the paw was sharply withdrawn. […]

[4] = Rat pharmacokinetic study; format: in vivo, male Sprague-Dawley rats; details: male, Sprague-Dawley, plasma, PO, single dose 5.8 mg/kg
Experimental: For rat pharmacokinetic studies, male Sprague-Dawley rats were housed individually and fasted overnight before use. The animal dosing experiments were carried out in accordance to the National Institutes of Health Guide to the Care and Use of Laboratory Animals and the Animal Welfare Act. For Compound I, a single dose of 5.8 mg/kg was administered to each rat in two groups (n=5/group) via intravenous (IV) and oral (PO) administration, respectively. The vehicle used for IV administration was 10% (v/v) CremophorEL in 90% PBS. The vehicle used for PO administration was 0.5% (w/v) methylcellulose in normal saline solution. Blood samples were collected at specified time-points (pre-dose, 30 minutes, 1 hour, 2 hours, 4 hours, 7 hours, 8 hours, 12 hours, 24 hours) following administration to individual rats within IV and PO group. Blood samples were clotted on ice immediately, plasma samples were then isolated by centrifugation and stored frozen (−80° C.) until further analysis. The concentrations of Compound I were individually determined by LC/MS/MS assay. Various pharmacokinetic parameters were calculated using Phoenix™ WinNonlin® software. To quantify the bioconversion efficiency of the Compound I in the circulation system, the bioavailability of Compound I after PO administration was calculated.

metastatic melanoma = details: Phase 2, patients with metastatic melanoma; cited from earlier work

T2 sequence (Q15858 whole entry): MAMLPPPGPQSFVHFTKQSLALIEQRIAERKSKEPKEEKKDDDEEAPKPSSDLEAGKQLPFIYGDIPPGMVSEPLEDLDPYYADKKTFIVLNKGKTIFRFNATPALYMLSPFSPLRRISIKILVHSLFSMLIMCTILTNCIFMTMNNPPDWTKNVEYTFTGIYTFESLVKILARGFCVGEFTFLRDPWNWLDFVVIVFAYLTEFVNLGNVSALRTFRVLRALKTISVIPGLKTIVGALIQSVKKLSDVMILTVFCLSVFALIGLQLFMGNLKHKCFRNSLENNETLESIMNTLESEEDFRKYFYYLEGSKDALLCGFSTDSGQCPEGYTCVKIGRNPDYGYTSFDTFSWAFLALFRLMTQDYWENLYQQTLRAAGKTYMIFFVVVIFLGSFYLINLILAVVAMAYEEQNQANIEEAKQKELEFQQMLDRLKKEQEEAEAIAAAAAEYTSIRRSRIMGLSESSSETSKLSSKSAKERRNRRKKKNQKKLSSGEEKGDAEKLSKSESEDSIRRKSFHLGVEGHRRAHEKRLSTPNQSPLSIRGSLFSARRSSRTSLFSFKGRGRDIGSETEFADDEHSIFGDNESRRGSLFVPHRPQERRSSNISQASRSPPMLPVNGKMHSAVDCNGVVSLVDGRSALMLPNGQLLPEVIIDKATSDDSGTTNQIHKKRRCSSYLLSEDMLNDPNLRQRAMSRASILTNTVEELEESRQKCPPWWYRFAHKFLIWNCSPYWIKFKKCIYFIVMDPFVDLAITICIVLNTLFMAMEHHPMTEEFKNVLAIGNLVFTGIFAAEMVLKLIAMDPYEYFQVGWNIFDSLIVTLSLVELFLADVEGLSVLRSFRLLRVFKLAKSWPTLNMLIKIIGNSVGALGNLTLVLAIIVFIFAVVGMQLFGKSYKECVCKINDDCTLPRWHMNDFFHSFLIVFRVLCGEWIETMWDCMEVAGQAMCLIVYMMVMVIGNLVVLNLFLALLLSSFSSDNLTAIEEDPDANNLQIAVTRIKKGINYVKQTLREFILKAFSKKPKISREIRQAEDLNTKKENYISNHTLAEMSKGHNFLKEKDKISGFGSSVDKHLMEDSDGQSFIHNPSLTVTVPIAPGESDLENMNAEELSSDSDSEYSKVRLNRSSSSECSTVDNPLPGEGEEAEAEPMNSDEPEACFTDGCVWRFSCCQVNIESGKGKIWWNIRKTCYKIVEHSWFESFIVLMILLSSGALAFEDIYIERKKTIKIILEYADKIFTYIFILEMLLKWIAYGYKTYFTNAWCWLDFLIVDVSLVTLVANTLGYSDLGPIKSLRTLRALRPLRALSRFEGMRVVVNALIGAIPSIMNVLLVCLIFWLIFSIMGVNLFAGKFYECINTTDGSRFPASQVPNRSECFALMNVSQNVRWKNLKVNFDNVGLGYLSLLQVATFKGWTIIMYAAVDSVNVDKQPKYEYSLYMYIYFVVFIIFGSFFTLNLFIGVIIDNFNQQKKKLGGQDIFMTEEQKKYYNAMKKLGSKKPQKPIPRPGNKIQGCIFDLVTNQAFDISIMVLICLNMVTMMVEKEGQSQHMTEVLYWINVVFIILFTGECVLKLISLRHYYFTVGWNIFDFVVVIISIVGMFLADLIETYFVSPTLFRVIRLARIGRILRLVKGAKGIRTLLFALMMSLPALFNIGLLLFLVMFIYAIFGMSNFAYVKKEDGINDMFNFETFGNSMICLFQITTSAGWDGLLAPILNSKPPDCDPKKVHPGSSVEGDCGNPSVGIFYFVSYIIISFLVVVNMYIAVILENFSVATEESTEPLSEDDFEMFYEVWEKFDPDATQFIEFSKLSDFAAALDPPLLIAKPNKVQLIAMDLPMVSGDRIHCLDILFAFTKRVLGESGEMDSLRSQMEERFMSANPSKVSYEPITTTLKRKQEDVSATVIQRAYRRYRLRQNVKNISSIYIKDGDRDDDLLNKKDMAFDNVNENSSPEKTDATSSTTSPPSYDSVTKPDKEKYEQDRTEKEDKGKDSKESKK
T1 sequence (Q99250 whole entry): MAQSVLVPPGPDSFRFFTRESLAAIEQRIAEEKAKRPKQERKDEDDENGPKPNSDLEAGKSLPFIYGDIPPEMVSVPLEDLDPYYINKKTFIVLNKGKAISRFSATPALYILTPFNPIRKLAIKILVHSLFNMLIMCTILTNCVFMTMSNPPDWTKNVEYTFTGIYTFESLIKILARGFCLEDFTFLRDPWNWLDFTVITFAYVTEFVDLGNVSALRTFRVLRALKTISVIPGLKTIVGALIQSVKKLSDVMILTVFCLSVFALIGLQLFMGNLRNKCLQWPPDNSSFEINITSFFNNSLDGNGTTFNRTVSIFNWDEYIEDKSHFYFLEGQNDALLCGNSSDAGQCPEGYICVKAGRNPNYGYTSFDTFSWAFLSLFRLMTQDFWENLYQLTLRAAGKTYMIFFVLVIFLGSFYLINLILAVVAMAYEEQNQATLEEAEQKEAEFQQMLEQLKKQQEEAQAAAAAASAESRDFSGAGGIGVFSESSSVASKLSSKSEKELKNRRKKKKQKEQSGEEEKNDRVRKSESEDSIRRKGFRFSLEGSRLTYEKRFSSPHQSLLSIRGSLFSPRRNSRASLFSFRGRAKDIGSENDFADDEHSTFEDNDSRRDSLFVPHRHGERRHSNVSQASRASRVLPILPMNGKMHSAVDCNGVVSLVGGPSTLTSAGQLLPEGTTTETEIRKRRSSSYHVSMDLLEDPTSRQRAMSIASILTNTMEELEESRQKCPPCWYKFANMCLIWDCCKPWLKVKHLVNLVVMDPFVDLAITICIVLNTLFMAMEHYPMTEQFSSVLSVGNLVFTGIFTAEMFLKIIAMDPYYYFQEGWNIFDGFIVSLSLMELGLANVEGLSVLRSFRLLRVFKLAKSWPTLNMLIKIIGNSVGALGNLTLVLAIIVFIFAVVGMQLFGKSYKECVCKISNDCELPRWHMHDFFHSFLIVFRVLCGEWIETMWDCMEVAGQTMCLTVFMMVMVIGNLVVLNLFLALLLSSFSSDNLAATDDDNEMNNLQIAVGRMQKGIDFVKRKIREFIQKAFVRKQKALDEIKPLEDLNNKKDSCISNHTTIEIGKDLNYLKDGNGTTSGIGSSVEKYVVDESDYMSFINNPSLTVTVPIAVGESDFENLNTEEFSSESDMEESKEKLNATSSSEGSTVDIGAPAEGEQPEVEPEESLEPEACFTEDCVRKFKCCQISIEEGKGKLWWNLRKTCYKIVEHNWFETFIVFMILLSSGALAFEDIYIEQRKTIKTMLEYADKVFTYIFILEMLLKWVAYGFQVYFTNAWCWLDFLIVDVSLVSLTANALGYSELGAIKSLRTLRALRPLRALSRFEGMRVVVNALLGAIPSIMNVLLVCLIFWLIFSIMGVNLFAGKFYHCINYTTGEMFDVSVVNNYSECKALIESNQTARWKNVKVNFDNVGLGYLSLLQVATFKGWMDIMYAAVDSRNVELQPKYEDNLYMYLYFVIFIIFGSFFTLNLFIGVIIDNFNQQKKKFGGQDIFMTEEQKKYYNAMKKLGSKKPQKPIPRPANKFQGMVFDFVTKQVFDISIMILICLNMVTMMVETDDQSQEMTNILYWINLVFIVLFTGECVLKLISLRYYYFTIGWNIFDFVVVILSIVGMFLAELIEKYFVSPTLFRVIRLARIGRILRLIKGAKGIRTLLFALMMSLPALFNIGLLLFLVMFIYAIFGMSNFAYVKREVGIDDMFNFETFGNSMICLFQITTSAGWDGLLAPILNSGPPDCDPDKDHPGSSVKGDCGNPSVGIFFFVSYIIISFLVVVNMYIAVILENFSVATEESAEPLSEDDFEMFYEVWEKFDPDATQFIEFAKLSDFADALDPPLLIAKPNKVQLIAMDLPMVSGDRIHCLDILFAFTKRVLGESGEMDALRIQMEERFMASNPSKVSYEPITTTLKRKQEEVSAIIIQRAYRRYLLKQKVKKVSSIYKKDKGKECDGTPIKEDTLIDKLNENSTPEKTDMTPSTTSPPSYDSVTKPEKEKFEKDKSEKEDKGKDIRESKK

Compound	IC50 [1] [µM]	IC50 [2] [µM]	also measured
Nc1nc2ccc(S(F)(F)(F)(F)F)cc2s1 [Compound I, 6-(Pentafluorosulfanyl)benzo[d]thiazol-2-amine]	4.67	0.682	anti-allodynic effect on SNL-induced mechanical allodynia [3]: reversed SNL-induced mechanical allodynia; AUC(0-t) [4]: 7690 ng·h/mL; Cmax [4]: 942 ng/mL; Tmax [4]: 2.3 h; half-life [4]: 7.11 h
Nc1nc2ccc(SC(F)(F)F)cc2[se]1 [Compound IX, 6-((Trifluoromethyl)thio)benzo[d][1,3]selenazol-2-amine]	15.3	1.17	
Nc1nc2ccc(S(F)(F)(F)(F)F)cc2[se]1 [Compound V, 6-(Pentafluorosulfanyl)benzo[d][1,3]selenazol-2-amine]	4.37	0.722	
Nc1nc2ccc(C(F)(F)F)cc2[se]1 [Compound VI, 6-(Trifluoromethyl)benzo[d][1,3]selenazol-2-amine]	10.1	0.745	
Nc1nc2ccc(OC(F)(F)F)cc2[se]1 [Compound VII, 6-(Trifluoromethoxy)benzo[d][1,3]selenazol-2-amine]	18	1.36	
Nc1nc2ccc(OC(F)(F)F)cc2s1 [Riluzole]			RECIST grade (metastatic melanoma): no overall improvement of RECIST grade
